Columns and labels:
[1] = molecular target: T1, human CYP11B2 (Homo sapiens, UniProt P19099); test: Inhibition of hCYP11B2 in transfected V79 cells; format: cell-based; settings: hamster V79 cells expressing human CYP11B2; substrate 11-deoxycorticosterone 200 nM
T1 construct: expressed in transfected cells
T1 sequence (P19099 25-503): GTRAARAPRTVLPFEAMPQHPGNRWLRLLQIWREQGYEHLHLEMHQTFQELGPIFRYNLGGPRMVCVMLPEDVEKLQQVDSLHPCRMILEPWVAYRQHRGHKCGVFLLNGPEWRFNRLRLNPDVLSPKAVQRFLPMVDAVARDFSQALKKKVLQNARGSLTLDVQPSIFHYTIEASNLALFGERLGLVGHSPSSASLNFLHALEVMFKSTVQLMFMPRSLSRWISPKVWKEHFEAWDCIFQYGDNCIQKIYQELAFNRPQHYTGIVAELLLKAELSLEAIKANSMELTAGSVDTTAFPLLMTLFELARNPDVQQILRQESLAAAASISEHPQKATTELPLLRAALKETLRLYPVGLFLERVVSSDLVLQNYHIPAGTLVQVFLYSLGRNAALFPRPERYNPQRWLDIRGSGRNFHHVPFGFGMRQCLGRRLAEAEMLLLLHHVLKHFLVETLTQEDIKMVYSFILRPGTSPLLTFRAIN
In short: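 The substrate (200 nM, 30 min) was added after a 2 hour compound pre-incubation in lentivirus-transduced V79 cells stably expressing human CYP11B2 plus rat NADPH-P450 reductase.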

[2] = molecular target: T2, human CYP11B1 (Homo sapiens, UniProt P15538); test: Inhibition of hCYP11B1 in transfected V79 cells; format: cell-based; settings: hamster V79 cells expressing human CYP11B1; substrate 11-deoxycortisol 200 nM
T2 construct: expressed in transfected cells
T2 sequence (P15538 25-503): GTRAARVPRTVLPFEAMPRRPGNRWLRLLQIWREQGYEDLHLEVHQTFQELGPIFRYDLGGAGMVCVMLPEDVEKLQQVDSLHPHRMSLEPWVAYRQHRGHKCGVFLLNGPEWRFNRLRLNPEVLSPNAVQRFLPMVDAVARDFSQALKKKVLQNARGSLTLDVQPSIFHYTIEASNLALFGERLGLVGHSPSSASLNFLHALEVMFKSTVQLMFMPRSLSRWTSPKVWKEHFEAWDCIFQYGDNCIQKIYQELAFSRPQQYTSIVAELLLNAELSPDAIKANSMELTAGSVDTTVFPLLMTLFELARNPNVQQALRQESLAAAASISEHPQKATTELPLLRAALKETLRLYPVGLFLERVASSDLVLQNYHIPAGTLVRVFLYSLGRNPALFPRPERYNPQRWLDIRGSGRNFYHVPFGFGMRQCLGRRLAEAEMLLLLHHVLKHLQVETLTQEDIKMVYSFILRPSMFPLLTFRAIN
In short: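 Reactions started with 200 nM 11-deoxycortisol, ran for 30 min and were stopped with ethyl acetate, after a 2 h compound preincubation. The host was stably transfected V79 hamster cells carrying human CYP11B1 plus rat P450 reductase. Percent inhibition, from LC-MS/MS or HPLC (260 nm) quantitation of substrate and product, gave the IC50.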

| IC50 [1] [nM] | IC50 [2] [nM] | Structure (SMILES) |
| --- | --- | --- |
| 19.7 | 85.6 | N#Cc1ccc(-c2cncc3c2OCCN3C(=O)c2ccc(C(F)(F)F)cc2)cc1 [O24, 4-(4-(4-(Trifluoromethyl)benzoyl)-3,4-dihydro-2H-pyrido[4,3-b][1,4]oxazin-8-yl)benzonitrile] |
| 18.1 | 476 | N#Cc1ccc(-c2cncc3c2OCCN3C(=O)c2cccc(C(F)(F)F)c2)cc1 [O25, 4-(4-(3-(Trifluoromethyl)benzoyl)-3,4-dihydro-2H-pyrido[4,3-b][1,4]oxazin-8-yl)benzonitrile] |
| 22.4 | 1450 | N#Cc1ccc(-c2cncc3c2OCCN3C(=O)c2ccc([N+](=O)[O-])cc2)cc1 [O26, 4-(4-(4-Nitrobenzoyl)-3,4-dihydro-2H-pyrido[4,3-b][1,4]oxazin-8-yl)benzonitrile] |
| 23.6 | 1200 | N#Cc1ccc(-c2cncc3c2OCCN3C(=O)c2cccc([N+](=O)[O-])c2)cc1 [O27, 4-(4-(3-Nitrobenzoyl)-3,4-dihydro-2H-pyrido[4,3-b][1,4]oxazin-8-yl)benzonitrile] |
| 20.9 | 277 | N#Cc1ccc(-c2cncc3c2OCCN3C(=O)c2ccc(Cl)cc2)cc1 [O28, 4-(4-(4-Chlorobenzoyl)-3,4-dihydro-2H-pyrido[4,3-b][1,4]oxazin-8-yl)benzonitrile] |
| 5.9 | 1710 | N#Cc1ccc(-c2cncc3c2OCCN3C(=O)c2cccc(Cl)c2)cc1 [O29, 4-(4-(3-Chlorobenzoyl)-3,4-dihydro-2H-pyrido[4,3-b][1,4]oxazin-8-yl)benzonitrile] |
| 110 | 4690 | N#Cc1ccc(-c2cncc3c2OCCN3C(=O)c2cccnc2)cc1 [O30, 4-(4-Nicotinoyl-3,4-dihydro-2H-pyrido[4,3-b][1,4]oxazin-8-yl)benzonitrile] |
| 2.8 | 187 | N#Cc1ccc(-c2cncc3c2OCCN3C(=O)c2ccco2)cc1 [O31, 4-(4-(Furan-2-carbonyl)-3,4-dihydro-2H-pyrido[4,3-b][1,4]oxazin-8-yl)benzonitrile] |
| 18 | 785 | N#CCC(=O)N1CCOc2c(-c3ccc(C#N)cc3)cncc21 [O32, 4-(4-(2-Cyanoacetyl)-3,4-dihydro-2H-pyrido[4,3-b][1,4]oxazin-8-yl)benzonitrile] |
| 18.3 | 1270 | N#Cc1ccc(-c2cncc3c2OCCN3C(=O)CCl)cc1 [O33, 4-(4-(2-Chloroacetyl)-3,4-dihydro-2H-pyrido[4,3-b][1,4]oxazin-8-yl)benzonitrile] |
| 17.4 | 546 | N#Cc1ccc(-c2cncc3c2OCCN3C(=O)CBr)cc1 [O34, 4-(4-(2-Bromoacetyl)-3,4-dihydro-2H-pyrido[4,3-b][1,4]oxazin-8-yl)benzonitrile] |
| 0.9 | 101 | N#Cc1ccc(-c2cncc3c2OCCN3C(=O)C(F)(F)F)cc1 [O35, 4-(4-(2,2,2-Trifluoroacetyl)-3,4-dihydro-2H-pyrido[4,3-b][1,4]oxazin-8-yl)benzonitrile] |
| 1.8 | 262 | N#Cc1ccc(-c2cncc3c2OCCN3C(=O)Cc2ccc(F)cc2)cc1 [O36, 4-(4-(2-(4-Fluorophenyl)acetyl)-3,4-dihydro-2H-pyrido[4,3-b][1,4]oxazin-8-yl)benzonitrile] |
| 1.4 | 86 | N#Cc1ccc(-c2cncc3c2OCCN3C(=O)Cc2cccc(F)c2)cc1 [O37, 4-(4-(2-(3-Fluorophenyl)acetyl)-3,4-dihydro-2H-pyrido[4,3-b][1,4]oxazin-8-yl)benzonitrile] |
| 16.8 | 559 | N#Cc1ccc(-c2cncc3c2OCCN3C(=O)Cc2ccc(Cl)cc2)cc1 [O38, 4-(4-(2-(4-Chlorophenyl)acetyl)-3,4-dihydro-2H-pyrido[4,3-b][1,4]oxazin-8-yl)benzonitrile] |
| 2.6 | 142 | N#Cc1ccc(-c2cncc3c2OCCN3C(=O)Cc2cccc(Cl)c2)cc1 [O39, 4-(4-(2-(3-Chlorophenyl)acetyl)-3,4-dihydro-2H-pyrido[4,3-b][1,4]oxazin-8-yl)benzonitrile] |
| 0.8 | 73 | COc1ccc(CC(=O)N2CCOc3c(-c4ccc(C#N)cc4)cncc32)cc1 [O40, 4-(4-(2-(4-Methoxyphenyl)acetyl)-3,4-dihydro-2H-pyrido[4,3-b][1,4]oxazin-8-yl)benzonitrile] |
| 1.8 | 52 | COc1cccc(CC(=O)N2CCOc3c(-c4ccc(C#N)cc4)cncc32)c1 [O41, 4-(4-(2-(3-Methoxyphenyl)acetyl)-3,4-dihydro-2H-pyrido[4,3-b][1,4]oxazin-8-yl)benzonitrile] |
| 0.6 | 67 | Cc1ccc(CC(=O)N2CCOc3c(-c4ccc(C#N)cc4)cncc32)cc1 [O42, 4-(4-(2-(p-Tolyl)acetyl)-3,4-dihydro-2H-pyrido[4,3-b][1,4]oxazin-8-yl)benzonitrile] |
| 4.7 | 125 | Cc1cccc(CC(=O)N2CCOc3c(-c4ccc(C#N)cc4)cncc32)c1 [O43, 4-(4-(2-(m-Tolyl)acetyl)-3,4-dihydro-2H-pyrido[4,3-b][1,4]oxazin-8-yl)benzonitrile] |
| 4.8 | 84 | Cc1ccccc1CC(=O)N1CCOc2c(-c3ccc(C#N)cc3)cncc21 [O44, 4-(4-(2-(o-Tolyl)acetyl)-3,4-dihydro-2H-pyrido[4,3-b][1,4]oxazin-8-yl)benzonitrile] |
| 15.1 | 614 | N#Cc1ccc(-c2cncc3c2OCCN3C(=O)Cc2ccc(C(F)(F)F)cc2)cc1 [O45, 4-(4-(2-(4-(Trifluoromethyl)phenyl)acetyl)-3,4-dihydro-2H-pyrido[4,3-b][1,4]oxazin-8-yl)benzonitrile] |
| 5.7 | 240 | N#Cc1ccc(-c2cncc3c2OCCN3C(=O)Cc2cccc(C(F)(F)F)c2)cc1 [O46, 4-(4-(2-(3-(Trifluoromethyl)phenyl)acetyl)-3,4-dihydro-2H-pyrido[4,3-b][1,4]oxazin-8-yl)benzonitrile] |
| 3.8 | 52 | N#Cc1ccc(-c2cncc3c2OCCN3C(=O)CCc2ccc(F)cc2)cc1 [O47, 4-(4-(3-(4-Fluorophenyl)propanoyl)-3,4-dihydro-2H-pyrido[4,3-b][1,4]oxazin-8-yl)benzonitrile] |
| 2.1 | 117 | N#Cc1ccc(-c2cncc3c2OCCN3C(=O)CCc2cccc(F)c2)cc1 [O48, 4-(4-(3-(3-Fluorophenyl)propanoyl)-3,4-dihydro-2H-pyrido[4,3-b][1,4]oxazin-8-yl)benzonitrile] |
| 1.6 | 54 | N#Cc1ccc(-c2cncc3c2OCCN3C(=O)CCc2ccc(Cl)cc2)cc1 [O49, 4-(4-(3-(4-Chlorophenyl)propanoyl)-3,4-dihydro-2H-pyrido[4,3-b][1,4]oxazin-8-yl)benzonitrile] |
| 5 | 42 | N#Cc1ccc(-c2cncc3c2OCCN3C(=O)CCc2cccc(Cl)c2)cc1 [O50, 4-(4-(3-(3-Chlorophenyl)propanoyl)-3,4-dihydro-2H-pyrido[4,3-b][1,4]oxazin-8-yl) benzonitrile] |
| 0.7 | 24 | COc1ccc(CCC(=O)N2CCOc3c(-c4ccc(C#N)cc4)cncc32)cc1 [O51, 4-(4-(3-(4-Methoxyphenyl)propanoyl)-3,4-dihydro-2H-pyrido[4,3-b][1,4]oxazin-8-yl)benzo nitrile] |

— patent US20260092074A1, “Annelated Pyridines as Steroidogenesis Inhibitors, Preparation Method and Use Thereof” (Guangzhou Vinnocent Pharmaceutical Limited, priority 2022, published 2026)
